We go through 94 compounds from PubChem BioAssay AID549 (SRMLSC, 2006).

Molecules are shown by their SMILES. Active and inactive are the calls of the source.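 The calls were made as follows: active = clearly stronger inhibition of phosphomevalonate kinase than of the coupling enzymes alone in a parallel counterscreen; inactive = the rest.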

The target of this assay is phosphomevalonate kinase (Streptococcus pneumoniae D39). Nature of the assay: phosphomevalonate kinase inhibition IC50 – biochemical, mevalonate pathway, coupling enzyme counter-screen, dose response (AID 549). The following applies: PMK enzyme, PK/LDH coupled NADH absorbance 340 nm. Background: Counterscreens check selectivity or assay interference.
Regarding `CCn1c(COc2ccccc2C)nnc1SCC(=O)N1CCCCC1`, the outcome was inactive. Turning to `COc1ccc(C2(C)NC(=O)N(Cc3cc(Cl)cc4c3OCOC4)C2=O)cc1OC` (centres undefined), the outcome was inactive. As for `CNC(=O)C1CC(=O)N(Cc2ccc3c(c2)OCO3)C(=Nc2ccc(OC)cc2)S1` (centres undefined), the outcome was inactive. For `Cc1ccc(Cl)cc1N1CCN(Cc2nnnn2C2CCCCC2)CC1`, the outcome was inactive.

For the compound `CC(C)OC(=O)CN1C(=O)c2ccccc2C1=O`, the outcome was inactive. Under `CCOC(=O)C1CCCN(C(=O)C2CCCN(S(C)(=O)=O)C2)C1` (centres undefined) stands “inactive”; under `COCCNC(=O)C1CCCN(c2nn3c(=O)cc(C)nc3s2)C1` (centres undefined), “inactive”. On to `O=C(CCc1nc2ccccc2c(=O)[nH]1)OCC(=O)N1CCN(S(=O)(=O)c2ccccc2)CC1`, for which the outcome was inactive. Take `Cn1c(=O)c2c(nc(N3CCOCC3)n2C)n(C)c1=O`: the result was inactive. Consider `CCc1nn(C(C)C(=O)NCCc2ccc(OC)c(OC)c2)c(=O)c2cc3occc3n12` (centres undefined), for which the result was inactive.

`O=C(CSc1nc(-c2ccccc2)cs1)N1CCN(C(=O)c2ccco2)CC1`: the outcome was inactive. Take `CC(c1ccccc1)C(CC(=O)O)C(=O)NC1CCCCC1` (centres undefined): the outcome was inactive.

With `CCCN1CCN(CCCNC(=O)Cn2nc(-c3ccccc3)ccc2=O)CC1`, the result was inactive.

Regarding `CC1(C(=O)NC2CCCCCCC2)CCC(=O)N1Cc1ccco1` (centres undefined), the result was inactive. Under `CCCOc1ccc(C2C(=O)N(C3CCCCC3)CC(=O)N2CCCOCC)cc1OC` (centres undefined) stands “inactive”. As for `COc1ccc2c(c1OC)C(=O)OC2C1c2c(cc3c(c2OC)OCO3)CCN1C` (centres undefined), the entry is “inactive”; as for `CC(C)OC(=O)C1C(=O)CC(C)(O)C(C(=O)OC(C)C)C1c1cccnc1` (centres undefined), “inactive”. For `CC(C)C(C(=O)NCC1CCCO1)N(Cc1ccco1)C(=O)CNS(=O)(=O)c1ccc(F)cc1` (centres undefined), the result was inactive. Under `CCOC(=O)C1=C(N)OC2=C(C(=O)CCC2)C1c1ccc(C)s1` (centres undefined) stands “inactive”; under `COc1ccc(CNC(=O)C2CCN(S(=O)(=O)N3CCOCC3)CC2)cc1`, “inactive”.

As to `CCS(=O)(=O)N1CCC(C(=O)NCc2ccco2)CC1`, the outcome was inactive. On to `O=C1CC(c2ccccc2)CC(O)=C1C=NCC1CCCO1` (centres undefined), for which the result was inactive. As for `Cc1ccc(CN2CCN(C(=O)C3CCC3)CC2)cc1`, the entry is “inactive”; as for `CCCCS(=O)(=O)C(=C1Nc2ccccc2N1)S(=O)(=O)CCCC`, “inactive”. Regarding `Cn1nnnc1Sc1ncnc2scc(-c3ccc(F)cc3)c12`, the outcome was inactive. Regarding `O=C(CSCc1cccc(F)c1)N1CCN(c2ccccc2)CC1`, the outcome was inactive. Under `COc1ccc(Cn2nnnc2C(c2ccccn2)N2CCN(c3cc(Cl)ccc3C)CC2)cc1` (centres undefined) stands “inactive”. Under `CON(C)c1nc(OCCNC(=O)OCc2ccc(Cl)cc2Cl)nc(N(C)C)n1` stands “inactive”. For the compound `COCC(C)n1c(COc2ccccc2F)nnc1SCc1c(C)noc1C` (centres undefined), the result was inactive. Turning to `Cc1ccnc(N2CCC(C(=O)Nc3ccc(Oc4ccccc4)cc3)CC2)n1`, the outcome was inactive. With `CCOC(=O)C1=C(C)NC(=O)NC1/C(C)=C/c1ccccc1` (centres undefined), the result was inactive. As for `C[C@]12CC[C@@H]3c4ccc(OS(=O)(=O)O)cc4CC[C@H]3[C@@H]1CCC2=O`, the outcome was inactive. As to `O=C(O)C1=C(C(=O)Nc2ccc(F)c(Cl)c2)CCCC1`, the outcome was inactive. In the case of `COC(=O)c1cn(-c2ccccc2)nc1C(=O)OC`, the result was inactive. On to `COC(=O)[C@@H](NC(=O)N1CCN(c2cccc(C(F)(F)F)c2)CC1)C(C)C`, for which the result was inactive. As to `O=C(NCc1ccccc1)C1C2C=CC3(CN(Cc4cccnc4)C(=O)C13)O2` (centres undefined), the outcome was inactive. As for `O=C(NCC1CCCO1)C1CC(=O)N(C2CCCCCC2)C1` (centres undefined), the entry is “inactive”; as for `O=S(=O)(Nc1ccc(S(=O)(=O)N2CCOCC2)cc1)c1ccccc1`, “inactive”; as for `COC(=O)c1cc(=O)nc2sccn12`, “inactive”. With `c1ccc2sc(SCc3ccc(-c4nnco4)cc3)nc2c1`, the outcome was inactive. Under `Cc1cccc(-n2nc3c(c2NC(=O)c2ccco2)CSC3)c1C` stands “inactive”.

`CC1SC(=NC(=O)c2ccco2)NC1=O` (centres undefined): the result was inactive.

Take `CCOC(=O)CC(=O)CSc1nnc2c(n1)[nH]c1ccccc12`: the result was inactive. For the compound `Cc1onc(-c2c(Cl)cccc2Cl)c1C(=O)Nc1ccc2c(c1)OCO2`, the outcome was inactive. Turning to `CCOc1cc(N2CCOCC2)c(OCC)cc1NC(=O)Cc1ccc(OC)c(OC)c1`, the result was inactive. Consider `C=CCn1c(NCc2ccccc2)nc2ccccc21`, for which the result was inactive. Under `CCN(CC)C(=O)C1CCCN(C/C(C)=C/c2ccccc2)C1` (centres undefined) stands “inactive”; under `Cc1csc(NC(=O)C2CCC(C)(C(=O)O)C2(C)C)n1` (centres undefined), “inactive”; under `CCc1nnc(NC(=O)CSc2nnc(Cc3cccn3C)n2C)s1`, “inactive”. Under `N#Cc1cc2ccccc2nc1SCc1cccnc1` stands “inactive”; under `COc1ccccc1CNC(=O)C1CCN(c2nc3ccccc3o2)CC1`, “inactive”; under `CC(C)CCn1nnnc1C(c1ccc(F)cc1)N1CCN(C(=O)c2ccco2)CC1` (centres undefined), “inactive”. As to `Cc1ccc(-c2noc(CCC(=O)NCCN3CCc4ccccc4C3)n2)cc1`, the outcome was inactive. In the case of `Cc1nnc(SCC(=O)N2CC(=O)Nc3ccccc32)n1-c1ccccc1`, the outcome was inactive. On to `COc1ccc2[nH]cc(C(=O)CN3CCCC(C)C3)c2c1` (centres undefined), for which the outcome was inactive. As to `CCOc1ccc(-c2nnc(SCC(=O)N3CCN(c4ccccc4)CC3)o2)cc1`, the result was inactive. As for `COc1ccc(-n2c(SCc3nnc(-c4ccccc4)o3)nnc2-c2ccccc2)cc1`, the entry is “inactive”; as for `CC(C)(C)c1ccccc1OCCCCCNCCO`, “inactive”; as for `CCOC(=O)N1CCN(C(=O)Cn2nc(-c3ccc(Cl)cc3)ccc2=O)CC1`, “inactive”. Consider `O=C(NC1CCCCC1)C1CC(=O)N(c2ccc(Cl)cc2)C1` (centres undefined), for which the result was inactive. Under `CCOc1ccc(S(=O)(=O)NCCCN2CCOCC2)c2ccccc12` stands “inactive”; under `CN(C)c1ccc(-c2nc3ccccc3n2C)cc1`, “inactive”. In the case of `CCOC(=O)CCn1c2nc(C)cc(C)c2c(=O)n1-c1ccccc1`, the outcome was inactive. As for `C=CCNC(=O)C1CCCN(S(C)(=O)=O)C1` (centres undefined), the entry is “inactive”; as for `CCn1c2ccccc2c2cc(CN3CCN(C(=O)c4ccco4)CC3)ccc21`, “inactive”.

Take `CCOc1ccccc1-n1c(SCC(=O)Nc2ccc(CC)cc2)nc2n[nH]c(C)c2c1=N`: the result was inactive. In the case of `O=C(c1cc(-c2ccco2)on1)N1CCCc2ccccc21`, the outcome was inactive. Under `CC1(C)CC(C)(O)P(=O)(c2ccccc2)O1` (centres undefined) stands “inactive”; under `Cc1oc2c(O)c(O)ccc2c(=O)c1-c1ccccc1`, “inactive”; under `CCc1nn(C(C)C(=O)NC(C)CCc2ccco2)c(=O)c2cc3occc3n12` (centres undefined), “inactive”. As for `O=C(NCCCN1CCN(Cc2ccccc2)CC1)C1CCN(S(=O)(=O)N2CCCC2)CC1`, the entry is “inactive”. As for `OC1(CN2CCOCC2)C2CN3CCN(C2)CC1(c1ccccc1)C3` (centres undefined), the entry is “inactive”; as for `Cc1ccccc1OCCCCc1c(C)n[nH]c1C`, “inactive”; as for `CC1CCN(C(=O)CSc2nc3ccccc3[nH]2)CC1`, “inactive”. `COC(=O)c1nonc1NCn1nnc2ccccc21`: the outcome was inactive. Under `COc1ccc(NC(=O)N(C2CCCCC2)C(C)c2ccco2)c(OC)c1` (centres undefined) stands “inactive”; under `O=C(CCSc1nc(-c2ccc3c(c2)OCO3)cc(C(F)(F)F)n1)NCc1ccco1`, “inactive”; under `CCN1C(=O)/C(=C2/Sc3ccc(OC)cc3N2C)SC1=Nc1ccc(C(C)=O)cc1`, “inactive”.

As to `O=C(Nc1c(-c2ccccc2)nc2sccn12)c1ccccc1`, the result was inactive. For the compound `O=C(CNCC1CCCO1)Nc1ccccc1N1CCOCC1` (centres undefined), the result was inactive. Regarding `CCN=c1sc(C(=O)NCCc2ccccc2)cc(=O)n1CC`, the outcome was inactive. Under `CN1C(=O)OC2(C)CCc3ccccc3C12C` (centres undefined) stands “inactive”; under `O=c1oc2c3c4c(cc2cc1-c1nc2ccccc2[nH]1)CCCN4CCC3`, “inactive”. Take `Cc1n[nH]c(=S)n(/N=C/c2ccccn2)c1=O`: the outcome was inactive.

Take `O=C(NCc1ccc2c(c1)OCO2)c1cc2n(n1)C(C(F)(F)F)CC(c1ccc3c(c1)OCO3)N2` (centres undefined): the result was inactive.

With `CC(=O)Nc1c(O)n(C)c2ccccc12`, the outcome was inactive.

On to `CC(=O)N1CCN(c2nc3cc4c(cc3nc2NS(=O)(=O)c2ccccc2)OCCO4)CC1`, for which the outcome was inactive. As for `COCCCNC(=O)c1ccc(N2CCCC2)c(NS(=O)(=O)c2ccc(C)cc2)c1`, the outcome was inactive.

In the case of `CN1CC(=O)NC1=NC(=O)c1ccc(Cl)c(S(=O)(=O)N2CCCCCC2)c1`, the result was inactive. Under `CCC(C)(C)n1nnnc1C(c1cccnc1)N1CCCc2ccccc21` (centres undefined) stands “inactive”. As for `COc1ccc(N2CCN(C(c3ccco3)c3sc4nc(C)nn4c3O)CC2)cc1` (centres undefined), the entry is “inactive”; as for `O=c1oc2ccccc2n1CCn1c2ccccc2c2nc3ccccc3nc21`, “inactive”; as for `O=C(CSc1nnc(COc2ccccc2)n1-c1ccccc1)c1cccs1`, “inactive”.

Turning to `CCOC(=O)C1=C(O)C(=O)N(c2ccc(S(N)(=O)=O)cc2)C1c1ccc(OC)cc1` (centres undefined), the result was inactive.
